Assay results reported in patent US9808003B2, “Herbicidally active 2-(substituted-phenyl)-cyclopentane-1,3-dione compounds and derivatives thereof” (Syngenta Limited, priority 2013, dated 2017).

Legend:
Format in all cases: in vivo
[1] = tested on: Echinochloa crus-galli (ECHCG); experiment: Test 1A glasshouse assay, post-emergence herbicidal activity; details: Echinochloa crus-galli, 312 h, application rate 250 g/ha, 13 days after application, visual (100%=total damage; 0%=no damage), read-out: Post-emergence Herbicidal Activity (% Phytotoxicity) ECHCG
Summary of the method: (§1)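 Herbicidal effect is scored by eye as % phytotoxicity (0–100%) 13 days after treatment of 8-day-old glasshouse-grown plants. The spray solution contains the technical active ingredient in acetone/water with 0.5% Tween 20.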

Avena fatua (AVEFA) [2] = experiment: as above; details: Avena fatua, 312 h, application rate 250 g/ha, 13 days after application, visual (100%=total damage; 0%=no damage), read-out: Post-emergence Herbicidal Activity (% Phytotoxicity) AVEFA
Summary of the method: as §1

[3] = tested on: Alopecurus myosuroides (ALOMY); experiment: as above; details: Alopecurus myosuroides, 312 h, application rate 250 g/ha, 13 days after application, visual (100%=total damage; 0%=no damage), read-out: Post-emergence Herbicidal Activity (% Phytotoxicity) ALOMY
Summary of the method: as §1

Lolium perenne (LOLPE) [4] = experiment: as above; details: Lolium perenne, 312 h, application rate 250 g/ha, 13 days after application, visual (100%=total damage; 0%=no damage), read-out: Post-emergence Herbicidal Activity (% Phytotoxicity) LOLPE
Summary of the method: as §1

[5] = tested on: Echinochloa crus-galli (ECHCG); experiment: Test 1A glasshouse assay, pre-emergence herbicidal activity; details: 312 h, 250 g/ha, 13 days after application, read-out: Pre-emergence herbicidal activity (% phytotoxicity) ECHCG
Method: (§2) Seeds of a variety of test species were sown in standard soil in pots. After cultivation for one day (pre-emergence) or after 8 days cultivation (post-emergence) under controlled conditions in a glasshouse (at 24/16° C., day/night; 14 hours light; 65% humidity), the plants were sprayed with an aqueous spray solution derived from the formulation of the technical active ingredient in acetone/water (50:50) solution containing 0.5% Tween 20 (polyoxyethelyene sorbitan monolaurate, CAS RN 9005-64-5). The test plants were then grown under controlled conditions in a glasshouse (at 24/16° C., day/night; 14 hours light; 65% humidity) and watered twice daily. 13 days after application of the test herbicide, for pre- and post-emergence, the test was evaluated visually for percentage phytotoxicity to the plant (where 100%=total damage to plant; 0%=no damage to plant).
(§3) Test plants: Lolium perenne (LOLPE), Alopecurus myosuroides (ALOMY), Echinochloa crus-galli (ECHCG), and Avena fatua (AVEFA); these are all grassy monocotyledonous weeds.

Avena fatua (AVEFA) [6] = experiment: as above; details: 312 h, 250 g/ha, 13 days after application, read-out: Pre-emergence herbicidal activity (% phytotoxicity) AVEFA
Method: as §2, §3

[7] = tested on: Alopecurus myosuroides (ALOMY); experiment: as above; details: 312 h, 250 g/ha, 13 days after application, read-out: Pre-emergence herbicidal activity (% phytotoxicity) ALOMY
Method: as §2, §3

Lolium perenne (LOLPE) [8] = experiment: as above; details: 312 h, 250 g/ha, 13 days after application, read-out: Pre-emergence herbicidal activity (% phytotoxicity) LOLPE
Method: as §2, §3

[9] = tested on: Spring Barley “Harrington”; experiment: Test 1B glasshouse assay, post-emergence herbicidal activity against cereal crops
Summary of the method: (§4)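 Visual percentage damage (100% = total, 0% = none) read 14 days after application, averaged over two replicates. Plants grown 14 days at 22/16 °C day/night before post-emergence spraying of unformulated compound (IF50/acetone, 0.5% v/v Adigor). Rates usually 60–120 g/ha; cloquintocet-mexyl 50 g/ha co-applied where stated.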

Winter Barley “Suzuka” = experiment: as above
Summary of the method: as §4

Winter Wheat “Hereward” = experiment: as above
Summary of the method: as §4

Setaria viridis (SETVI) = experiment: Test 1B glasshouse assay, post-emergence herbicidal activity against grassy weeds; details: 14 DAA
Summary of the method: (§5)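 Herbicide applied post-emergence at rates such as 60 g/ha (±50 g/ha cloquintocet-mexyl) or 90 and 120 g/ha (with safener), rates varying per compound. Plants kept at 22/16 °C, watered twice daily; percentage phytotoxicity scored visually after 14 days.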

Avena fatua (AVEFA) [10] = experiment: as above; details: 14 DAA
Summary of the method: as §5

[11] = tested on: Lolium multiflorum (LOLMU); experiment: as above; details: 14 DAA
Summary of the method: as §5

Poa annua (POAAN) = experiment: as above; details: 14 DAA
Summary of the method: as §5

[12] = tested on: Alopecurus myosuroides (ALOMY); experiment: as above; details: 14 DAA
Summary of the method: as §5

Spring Wheat “Freya” = experiment: Test 1B glasshouse assay, post-emergence herbicidal activity against cereal crops
[13] = herbicide 30 g/ha, cloquintocet-mexyl 50 g/ha
[14] = herbicide 45 g/ha, cloquintocet-mexyl 50 g/ha
[15] = herbicide 60 g/ha, cloquintocet-mexyl 0 g/ha
[16] = herbicide 60 g/ha, cloquintocet-mexyl 50 g/ha
[17] = 30 g/ha herbicide, 50 g/ha cloquintocet-mexyl
[18] = 45 g/ha herbicide, 50 g/ha cloquintocet-mexyl
[19] = 60 g/ha herbicide, 0 g/ha cloquintocet-mexyl
[20] = 60 g/ha herbicide, 50 g/ha cloquintocet-mexyl

Work on Cc1cc(C)c(C2C(=O)CC(CCNC(=O)c3ccc(F)cc3)C2=O)c(C)c1 (stereo not shown) [Compound A19] yielded a pest or weed control at 250 g/ha [1] of 100%, a pest or weed control at 250 g/ha (Avena fatua (AVEFA) [2]) of 70% and a pest or weed control at 250 g/ha [3] of 80%. The pest or weed control at 250 g/ha (Lolium perenne (LOLPE) [4]) was 100%, the inhibition at 250 g/ha [5] was 100% and the inhibition at 250 g/ha (Avena fatua (AVEFA) [6]) was 50%. The inhibition at 250 g/ha [7] was 90% and the inhibition at 250 g/ha (Lolium perenne (LOLPE) [8]) was 100%.

In the case of Cc1cc(-c2ccc(F)cc2)cc(C)c1C1C(=O)CC(CCNC(=O)c2ccccn2)C1=O (stereo not shown) [Compound A32], the pest or weed control at 250 g/ha [1] is reported as 100%, the pest or weed control at 250 g/ha (Avena fatua (AVEFA) [2]) is reported as 100% and the pest or weed control at 250 g/ha [3] is reported as 90%. It also gave a pest or weed control at 250 g/ha (Lolium perenne (LOLPE) [4]) of 100%, an inhibition at 250 g/ha [5] of 100% and an inhibition at 250 g/ha (Avena fatua (AVEFA) [6]) of 80%. The inhibition at 250 g/ha [7] was 100% and the inhibition at 250 g/ha (Lolium perenne (LOLPE) [8]) was 100%.

With Cc1cc(C)c(C2C(=O)C[C@@H](CCNC(=O)c3cc(Cl)ccn3)C2=O)c(C)c1 (stereo partly shown) [Compound A127] the “Percentage Phytotoxicity Spring Barley “Harrington”” value [9, 13] was 0%, the “Percentage Phytotoxicity Spring Barley “Harrington”” value [9, 14] was 0% and the “Percentage Phytotoxicity Spring Barley “Harrington”” value [9, 15] was 83%. For the same molecule, the “Percentage Phytotoxicity Spring Barley “Harrington”” value [9, 16] was 8%, the “Percentage Phytotoxicity Winter Barley “Suzuka”” value (Winter Barley “Suzuka”; [13]) was 0% and the “Percentage Phytotoxicity Winter Barley “Suzuka”” value (Winter Barley “Suzuka”; [14]) was 0%. For the same molecule, the “Percentage Phytotoxicity Winter Barley “Suzuka”” value (Winter Barley “Suzuka”; [15]) was 85%, the “Percentage Phytotoxicity Winter Barley “Suzuka”” value (Winter Barley “Suzuka”; [16]) was 5% and the “Percentage Phytotoxicity Winter Wheat “Hereward”” value (Winter Wheat “Hereward”; [13]) was 0%. The “Percentage Phytotoxicity Winter Wheat “Hereward”” value (Winter Wheat “Hereward”; [14]) was 0%, the “Percentage Phytotoxicity Winter Wheat “Hereward”” value (Winter Wheat “Hereward”; [15]) was 65% and the “Percentage Phytotoxicity Winter Wheat “Hereward”” value (Winter Wheat “Hereward”; [16]) was 5%. The “Post-emergence herbicidal activity, percentage phytotoxicity, SETVI” value (Setaria viridis (SETVI); [17]) was 97%, the “Post-emergence herbicidal activity, percentage phytotoxicity, SETVI” value (Setaria viridis (SETVI); [18]) was 99% and the “Post-emergence herbicidal activity, percentage phytotoxicity, SETVI” value (Setaria viridis (SETVI); [19]) was 100%. The “Post-emergence herbicidal activity, percentage phytotoxicity, SETVI” value (Setaria viridis (SETVI); [20]) was 100%, the “Post-emergence herbicidal activity, percentage phytotoxicity, AVEFA” value (Avena fatua (AVEFA) [10]; [17]) was 55% and the “Post-emergence herbicidal activity, percentage phytotoxicity, AVEFA” value (Avena fatua (AVEFA) [10]; [18]) was 80%. The “Post-emergence herbicidal activity, percentage phytotoxicity, AVEFA” value (Avena fatua (AVEFA) [10]; [19]) was 85%, the “Post-emergence herbicidal activity, percentage phytotoxicity, AVEFA” value (Avena fatua (AVEFA) [10]; [20]) was 90% and the “Post-emergence herbicidal activity, percentage phytotoxicity, LOLMU” value [11, 17] was 65%. For the same molecule, the “Post-emergence herbicidal activity, percentage phytotoxicity, LOLMU” value [11, 18] was 83%, the “Post-emergence herbicidal activity, percentage phytotoxicity, LOLMU” value [11, 19] was 97% and the “Post-emergence herbicidal activity, percentage phytotoxicity, LOLMU” value [11, 20] was 83%. For the same molecule, the “Post-emergence herbicidal activity, percentage phytotoxicity, POAAN” value (Poa annua (POAAN); [17]) was 0%, the “Post-emergence herbicidal activity, percentage phytotoxicity, POAAN” value (Poa annua (POAAN); [18]) was 0% and the “Post-emergence herbicidal activity, percentage phytotoxicity, POAAN” value (Poa annua (POAAN); [19]) was 0%. For the same molecule, the “Post-emergence herbicidal activity, percentage phytotoxicity, POAAN” value (Poa annua (POAAN); [20]) was 0%, the “Post-emergence herbicidal activity, percentage phytotoxicity, ALOMY” value [12, 17] was 48% and the “Post-emergence herbicidal activity, percentage phytotoxicity, ALOMY” value [12, 18] was 63%. For the same molecule, the “Post-emergence herbicidal activity, percentage phytotoxicity, ALOMY” value [12, 19] was 78%, the “Post-emergence herbicidal activity, percentage phytotoxicity, ALOMY” value [12, 20] was 68% and the “Percentage Phytotoxicity Spring Wheat “Freya”” value (Spring Wheat “Freya”; [13]) was 0%. The “Percentage Phytotoxicity Spring Wheat “Freya”” value (Spring Wheat “Freya”; [14]) was 3%, the “Percentage Phytotoxicity Spring Wheat “Freya”” value (Spring Wheat “Freya”; [15]) was 70% and the “Percentage Phytotoxicity Spring Wheat “Freya”” value (Spring Wheat “Freya”; [16]) was 5%.

For Cc1cc(C)c(C2C(=O)C[C@H](CCNC(=O)c3cc(Cl)ccn3)C2=O)c(C)c1 (stereo partly shown) [Compound A128], the “Percentage Phytotoxicity Spring Barley “Harrington”” value [9, 13] was 0%, the “Percentage Phytotoxicity Spring Barley “Harrington”” value [9, 14] was 0% and the “Percentage Phytotoxicity Spring Barley “Harrington”” value [9, 15] was 48%. For the same molecule, the “Percentage Phytotoxicity Spring Barley “Harrington”” value [9, 16] was 0%, the “Percentage Phytotoxicity Winter Barley “Suzuka”” value (Winter Barley “Suzuka”; [13]) was 0% and the “Percentage Phytotoxicity Winter Barley “Suzuka”” value (Winter Barley “Suzuka”; [14]) was 0%. The “Percentage Phytotoxicity Winter Barley “Suzuka”” value (Winter Barley “Suzuka”; [15]) was 18%, the “Percentage Phytotoxicity Winter Barley “Suzuka”” value (Winter Barley “Suzuka”; [16]) was 0% and the “Percentage Phytotoxicity Winter Wheat “Hereward”” value (Winter Wheat “Hereward”; [13]) was 0%. The “Percentage Phytotoxicity Winter Wheat “Hereward”” value (Winter Wheat “Hereward”; [14]) was 0%, the “Percentage Phytotoxicity Winter Wheat “Hereward”” value (Winter Wheat “Hereward”; [15]) was 8% and the “Percentage Phytotoxicity Winter Wheat “Hereward”” value (Winter Wheat “Hereward”; [16]) was 0%. For the same molecule, the “Post-emergence herbicidal activity, percentage phytotoxicity, SETVI” value (Setaria viridis (SETVI); [17]) was 23%, the “Post-emergence herbicidal activity, percentage phytotoxicity, SETVI” value (Setaria viridis (SETVI); [18]) was 43% and the “Post-emergence herbicidal activity, percentage phytotoxicity, SETVI” value (Setaria viridis (SETVI); [19]) was 55%. The “Post-emergence herbicidal activity, percentage phytotoxicity, SETVI” value (Setaria viridis (SETVI); [20]) was 63%, the “Post-emergence herbicidal activity, percentage phytotoxicity, AVEFA” value (Avena fatua (AVEFA) [10]; [17]) was 0% and the “Post-emergence herbicidal activity, percentage phytotoxicity, AVEFA” value (Avena fatua (AVEFA) [10]; [18]) was 3%. The “Post-emergence herbicidal activity, percentage phytotoxicity, AVEFA” value (Avena fatua (AVEFA) [10]; [19]) was 18%, the “Post-emergence herbicidal activity, percentage phytotoxicity, AVEFA” value (Avena fatua (AVEFA) [10]; [20]) was 10% and the “Post-emergence herbicidal activity, percentage phytotoxicity, LOLMU” value [11, 17] was 43%. For the same molecule, the “Post-emergence herbicidal activity, percentage phytotoxicity, LOLMU” value [11, 18] was 63%, the “Post-emergence herbicidal activity, percentage phytotoxicity, LOLMU” value [11, 19] was 85% and the “Post-emergence herbicidal activity, percentage phytotoxicity, LOLMU” value [11, 20] was 78%. The “Post-emergence herbicidal activity, percentage phytotoxicity, POAAN” value (Poa annua (POAAN); [17]) was 0%, the “Post-emergence herbicidal activity, percentage phytotoxicity, POAAN” value (Poa annua (POAAN); [18]) was 0% and the “Post-emergence herbicidal activity, percentage phytotoxicity, POAAN” value (Poa annua (POAAN); [19]) was 5%. The “Post-emergence herbicidal activity, percentage phytotoxicity, POAAN” value (Poa annua (POAAN); [20]) was 0%, the “Post-emergence herbicidal activity, percentage phytotoxicity, ALOMY” value [12, 17] was 3% and the “Post-emergence herbicidal activity, percentage phytotoxicity, ALOMY” value [12, 18] was 25%. For the same molecule, the “Post-emergence herbicidal activity, percentage phytotoxicity, ALOMY” value [12, 19] was 48%, the “Post-emergence herbicidal activity, percentage phytotoxicity, ALOMY” value [12, 20] was 35% and the “Percentage Phytotoxicity Spring Wheat “Freya”” value (Spring Wheat “Freya”; [13]) was 3%. For the same molecule, the “Percentage Phytotoxicity Spring Wheat “Freya”” value (Spring Wheat “Freya”; [14]) was 0%, the “Percentage Phytotoxicity Spring Wheat “Freya”” value (Spring Wheat “Freya”; [15]) was 7% and the “Percentage Phytotoxicity Spring Wheat “Freya”” value (Spring Wheat “Freya”; [16]) was 3%.
